Key:
[1] = tested on: osteosarcoma cell lines SAOS-2 (HTB-85), U2OS (HTB-96), HOS, 143B, LM5, Hu09 WT, Hu09H3, Hu09 L13, MG-63 and MG-63 M8; assay: Taurolidine tested against 10 osteosarcoma cell lines; format: cell-based
Method: Taurolidine was tested against 10 oestosarcoma cell lines at concentrations of 50, 100 and 200 uM taurolidine. The cell lines were SAOS-2 (HTB-85), U2OS (HTB-96), HOS, 143B, LM5, Hu09 WT, Hu09H3, Hu09 L13, MG-63 and MG-63 M8.

[2] = Solubility of taurolidine in water; format: physicochemical; conditions: room temperature
Text: The preferred active substances are methylol transfer agents such as taurolidine, taurultam, mixtures thereof or equilibriums thereof. Where taurolidine and/or taurultam is used, its concentration in the aqueous solution absorbed in the gel is preferably 0.5% to 5% by weight, e.g. about 1 to 4%. Where the gel is in the form of a granulate, 2-4% by weight taurolidine and/or taurultam is preferred, more preferably, 4% taurolidine and/or taurultam by weight. Taurolidine is only about 2-3% soluble in water at room temperature, so that at higher concentrations, some material will be present as a suspension of, for example, fine taurolidine crystals.

soluble in water [2]: 2-3%
Structure (SMILES): O=S1(=O)CCN(CN2CCS(=O)(=O)NC2)CN1 [Taurolidine, taurolidine]
apoptotic cells ([1]; 50, 100 and 200 uM taurolidine): dose-dependent increase in apoptic cells | inhibition of osteosarcoma cell lines ([1]; 50, 100 and 200 uM taurolidine, 10 cell lines): inhibited all osteosarcoma cell lines tested | mechanism of apoptosis ([1]; osteosarcoma cell lines): caspase-dependent

From patent US20100040667A1, “METHOD OF TREATING BONE CANCER” (ED. GEISTLICH SOEHNE AG FUER CHEMISCHE INDUSTRIE, priority 2006, published 2010)
